Experimental data: US9561231B2 (AbbVie Inc., priority 2012, dated 2017)

Assays:
[1] = biological target: T1, second (BD2: amino acids E352-E168) bromodomain of BRD4 (Homo sapiens, UniProt O60885); assay: TR-FRET bromodomain binding assay, BRD4 BD2; conditions: TR-FRET assay protocol (A-G, compound concentration range); Ki calculated from IC50, probe Kd and probe concentration; read-out: TR-FRET Binding Ki: BRD4 (BDII_E352-M457)
T1 construct: protocol
Method in brief: (§1)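 Compounds were serially diluted in DMSO, diluted into pH 6.0 phosphate buffer with NaCl, EDTA, Triton X-100 and DTT, then combined with His-tagged bromodomain and an Alexa647-labeled BET-inhibitor probe. TR-FRET was read, percent inhibition fitted to give IC50, and Ki derived using probe Kd.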

[2] = biological target: T2, first (BD1: amino acids K57-E168) bromodomain of BRD4 (Homo sapiens, UniProt O60885); assay: TR-FRET bromodomain binding assay, BRD4 BD1; conditions: TR-FRET assay protocol (A-G, compound concentration range); Ki calculated from IC50, probe Kd and probe concentration; read-out: TR-FRET Binding Ki: BRD4 (BDI_K57-E168)
T2 construct: His-tagged first (BD1: amino acids K57-E168)
Method in brief: as §1

Ki [1] [nM]	Ki [2] [nM]	Structure (SMILES)
19700	> 13000	CN(C(=O)c1cccc(-c2cc(=O)n(C)nc2-c2ccccc2Oc2ccccc2)c1)C1CCCCC1 [Example 148, N-cyclohexyl-N-methyl-3-[1-methyl-6-oxo-3-(2-phenoxyphenyl)-1,6-dihydropyridazin-4-yl]benzamide]
411	471	CN(C)CCCNC(=O)c1ccc(-c2cc(=O)n(C)nc2-c2ccccc2Oc2ccccc2)cc1 [Example 150, N-[3-(dimethylamino)propyl]-4-[1-methyl-6-oxo-3-(2-phenoxyphenyl)-1,6-dihydropyridazin-4-yl]benzamide]
258	400	Cn1nc(-c2ccccc2Oc2ccccc2)c(-c2ccc(N3CCNCC3)nc2)cc1=O [Example 151, 2-methyl-6-(2-phenoxyphenyl)-5-[6-(piperazin-1-yl)pyridin-3-yl]pyridazin-3(2H)-one]
7270	6620	CN(C)C(=O)c1cc(F)cc(-c2cc(=O)n(C)nc2-c2ccccc2Oc2ccccc2)c1 [Example 152, 3-fluoro-N,N-dimethyl-5-[1-methyl-6-oxo-3-(2-phenoxyphenyl)-1,6-dihydropyridazin-4-yl]benzamide]
3090	5960	Cn1nc(-c2ccccc2Oc2ccccc2)c(-c2ccnc(N3CCOCC3)c2)cc1=O [Example 153, 2-methyl-5-[2-(morpholin-4-yl)pyridin-4-yl]-6-(2-phenoxyphenyl)pyridazin-3(2H)-one]
5940	11900	CC1CCN(C(=O)c2cccc(-c3cc(=O)n(C)nc3-c3ccccc3Oc3ccccc3)c2)CC1 [Example 154, 2-methyl-5-{3-[(4-methylpiperidin-1-yl)carbonyl]phenyl}-6-(2-phenoxyphenyl)pyridazin-3(2H)-one]
6900	5520	CN(C)C(=O)c1cc(-c2cc(=O)n(C)nc2-c2ccccc2Oc2ccccc2)ccc1F [Example 155, 2-fluoro-N,N-dimethyl-5-[1-methyl-6-oxo-3-(2-phenoxyphenyl)-1,6-dihydropyridazin-4-yl]benzamide]
13100	> 13000	Cn1nc(-c2ccccc2Oc2ccccc2)c(-c2cccc(S(=O)(=O)N3CCCC3)c2)cc1=O [Example 156, 2-methyl-6-(2-phenoxyphenyl)-5-[3-(pyrrolidin-1-ylsulfonyl)phenyl]pyridazin-3(2H)-one]
4750	5510	Cn1nc(-c2ccccc2Oc2ccccc2)c(-c2cccc(C(=O)N3CCCCC3)c2)cc1=O [Example 157, 2-methyl-6-(2-phenoxyphenyl)-5-[3-(piperidin-1-ylcarbonyl)phenyl]pyridazin-3(2H)-one]
529	604	CCN(CC)C(=O)c1ccc(-c2cc(=O)n(C)nc2-c2ccccc2Oc2ccccc2)cc1 [Example 158, N,N-diethyl-4-[1-methyl-6-oxo-3-(2-phenoxyphenyl)-1,6-dihydropyridazin-4-yl]benzamide]
8420	5450	CNS(=O)(=O)c1ccc(-c2cc(=O)n(C)nc2-c2ccccc2Oc2ccccc2)cc1 [Example 159, N-methyl-4-[1-methyl-6-oxo-3-(2-phenoxyphenyl)-1,6-dihydropyridazin-4-yl]benzenesulfonamide]
10200	8540	CCN(CC)C(=O)c1cccc(-c2cc(=O)n(C)nc2-c2ccccc2Oc2ccccc2)c1 [Example 160, N,N-diethyl-3-[1-methyl-6-oxo-3-(2-phenoxyphenyl)-1,6-dihydropyridazin-4-yl]benzamide]
75.1	109	Cn1nc(-c2ccccc2Oc2ccccc2)c(-c2ccc(NCCN3CCOCC3)nc2)cc1=O [Example 162, 2-methyl-5-(6-{[2-(morpholin-4-yl)ethyl]amino}pyridin-3-yl)-6-(2-phenoxyphenyl)pyridazin-3(2H)-one]
366	1990	CN(C)CCCNC(=O)c1cccc(-c2cc(=O)n(C)nc2-c2ccccc2Oc2ccccc2)c1 [Example 163, N-[3-(dimethylamino)propyl]-3-[1-methyl-6-oxo-3-(2-phenoxyphenyl)-1,6-dihydropyridazin-4-yl]benzamide]
245	1510	Cn1nc(-c2ccccc2Oc2ccccc2)c(-c2ccc(NCc3ccccc3)nc2)cc1=O [Example 164, 5-[6-(benzylamino)pyridin-3-yl]-2-methyl-6-(2-phenoxyphenyl)pyridazin-3(2H)-one]
492	567	Cn1nc(-c2ccccc2Oc2ccccc2)c(-c2ccc(C(=O)NCCC#N)cc2)cc1=O [Example 165, N-(2-cyanoethyl)-4-[1-methyl-6-oxo-3-(2-phenoxyphenyl)-1,6-dihydropyridazin-4-yl]benzamide]
1010	705	Cc1cc(-c2cc(=O)n(C)nc2-c2ccccc2Oc2ccccc2)cnc1N1CCOCC1 [Example 166, 2-methyl-5-[5-methyl-6-(morpholin-4-yl)pyridin-3-yl]-6-(2-phenoxyphenyl)pyridazin-3(2H)-one]
7370	5430	CCN(CC)C(=O)c1cc(F)cc(-c2cc(=O)n(C)nc2-c2ccccc2Oc2ccccc2)c1 [Example 167, N,N-diethyl-3-fluoro-5-[1-methyl-6-oxo-3-(2-phenoxyphenyl)-1,6-dihydropyridazin-4-yl]benzamide]
993	1070	Cn1nc(-c2ccccc2Oc2ccccc2)c(-c2ccc(C(=O)NC(C)(C)C)cc2)cc1=O [Example 168, N-tert-butyl-4-[1-methyl-6-oxo-3-(2-phenoxyphenyl)-1,6-dihydropyridazin-4-yl]benzamide]
562	599	Cn1nc(-c2ccccc2Oc2ccccc2)c(-c2ccc(C(=O)NC3CCCC3)cc2)cc1=O [Example 169, N-cyclopentyl-4-[1-methyl-6-oxo-3-(2-phenoxyphenyl)-1,6-dihydropyridazin-4-yl]benzamide]
1620	1670	CC(C)CNC(=O)c1ccc(-c2cc(=O)n(C)nc2-c2ccccc2Oc2ccccc2)cc1 [Example 170, 4-[1-methyl-6-oxo-3-(2-phenoxyphenyl)-1,6-dihydropyridazin-4-yl]-N-(2-methylpropyl)benzamide]
215	253	COCCCNC(=O)c1ccc(-c2cc(=O)n(C)nc2-c2ccccc2Oc2ccccc2)cc1 [Example 171, N-(3-methoxypropyl)-4-[1-methyl-6-oxo-3-(2-phenoxyphenyl)-1,6-dihydropyridazin-4-yl]benzamide]
593	572	Cn1nc(-c2ccccc2Oc2ccccc2)c(-c2cnn(CCN3CCOCC3)c2)cc1=O [Example 172, 2-methyl-5-{1-[2-(morpholin-4-yl)ethyl]-1H-pyrazol-4-yl}-6-(2-phenoxyphenyl)pyridazin-3(2H)-one]
545	805	COCCNC(=O)c1ccc(-c2cc(=O)n(C)nc2-c2ccccc2Oc2ccccc2)cc1 [Example 173, N-(2-methoxyethyl)-4-[1-methyl-6-oxo-3-(2-phenoxyphenyl)-1,6-dihydropyridazin-4-yl]benzamide]
764	854	CN1CCN(c2cc(-c3cc(=O)n(C)nc3-c3ccccc3Oc3ccccc3)ccn2)CC1 [Example 174, 2-methyl-5-[2-(4-methylpiperazin-1-yl)pyridin-4-yl]-6-(2-phenoxyphenyl)pyridazin-3(2H)-one]
